Measured values taken from ChEMBL document CHEMBL1201862, “PubChem BioAssay data set” (2004).
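Results reflect a 48-hour exposure of cells in 96-well plates to compound at five concentrations. GI50 = concentration required for 50% inhibition of growth.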 Calls of active or inactive are those of the source. No stated cut-off is given here; in the data, active = GI50 up to about 1.1 µM and inactive = higher.

How the values were obtained:
Experiment in all cases: inhibition of tumour cell growth, NCI panel, 48 h
CCRF-CEM = tested on: CCRF-CEM
U-251 = tested on: U-251
HT-29 = tested on: HT-29
MCF7 = tested on: MCF7
SN12C = tested on: SN12C
786-0 = tested on: 786-0
SF-295 = tested on: SF-295
IGROV-1 = tested on: IGROV-1
HL-60 = tested on: HL-60
UO-31 = tested on: UO-31
OVCAR-8 = tested on: OVCAR-8
NCI-H226 = tested on: NCI-H226
SK-OV-3 = tested on: SK-OV-3
OVCAR-4 = tested on: OVCAR-4
SNB-19 = tested on: SNB-19
UACC-62 = tested on: UACC-62
SK-MEL-28 = tested on: SK-MEL-28
BT-549 = tested on: BT-549
SF-539 = tested on: SF-539
MDA-MB-435 = tested on: MDA-MB-435
HOP-92 = tested on: HOP-92
MDA-N = tested on: MDA-N
Hs-578T = tested on: Hs-578T
SNB-75 = tested on: SNB-75
OVCAR-5 = tested on: OVCAR-5
KM12 = tested on: KM12
NCI-H522 = tested on: NCI-H522
NCI-H460 = tested on: NCI-H460
DU-145 = tested on: DU-145
PC-3 = tested on: PC-3
Malme-3M = tested on: Malme-3M
UACC-257 = tested on: UACC-257
T47D = tested on: T47D
HCT-116 = tested on: HCT-116
MDA-MB-231 = tested on: MDA-MB-231
EKVX = tested on: EKVX
SK-MEL-2 = tested on: SK-MEL-2
A549 = tested on: A549
TK-10 = tested on: TK-10
M14 = tested on: M14
LOX IMVI = tested on: LOX IMVI
HCT-15 = tested on: HCT-15
CAKI-1 = tested on: CAKI-1
OVCAR-3 = tested on: OVCAR-3
NCI-H23 = tested on: NCI-H23
A498 = tested on: A498
SW-620 = tested on: SW-620
SK-MEL-5 = tested on: SK-MEL-5
ACHN = tested on: ACHN
MOLT-4 = tested on: MOLT-4
COLO 205 = tested on: COLO 205
SF-268 = tested on: SF-268
HOP-62 = tested on: HOP-62
K562 = tested on: K562
SR = tested on: SR
RPMI-8226 = tested on: RPMI-8226
NCI/ADR-RES = tested on: NCI/ADR-RES
HCC 2998 = tested on: HCC 2998
RXF 393 = tested on: RXF 393

CCOC(=O)c1cnn2c1ncc1c(=O)n(NC(N)=O)ccc12
GI50 (CCRF-CEM): > 100 µM (inactive)
GI50 (U-251): > 100 µM (inactive)
GI50 (HT-29): > 100 µM (inactive)
GI50 (MCF7): > 100 µM (inactive)
GI50 (SN12C): > 100 µM (inactive)
GI50 (786-0): > 100 µM (inactive)
GI50 (SF-295): > 100 µM (inactive)
GI50 (IGROV-1): > 100 µM (inactive)
GI50 (HL-60): > 100 µM (inactive)
GI50 (UO-31): > 100 µM (inactive)
GI50 (OVCAR-8): > 100 µM (inactive)
GI50 (NCI-H226): > 100 µM (inactive)
GI50 (SK-OV-3): > 100 µM (inactive)
GI50 (OVCAR-4): > 100 µM (inactive)
GI50 (SNB-19): > 100 µM (inactive)
GI50 (UACC-62): > 100 µM (inactive)
GI50 (SK-MEL-28): > 100 µM (inactive)
GI50 (BT-549): 94.8 µM (inactive)
GI50 (SF-539): > 100 µM (inactive)
GI50 (MDA-MB-435): > 100 µM (inactive)
GI50 (HOP-92): > 100 µM (inactive)
GI50 (MDA-N): > 100 µM (inactive)
GI50 (Hs-578T): > 100 µM (inactive)
GI50 (SNB-75): > 100 µM (inactive)
GI50 (OVCAR-5): > 100 µM (inactive)
GI50 (KM12): > 100 µM (inactive)
GI50 (NCI-H522): > 100 µM (inactive)
GI50 (NCI-H460): > 100 µM (inactive)
GI50 (DU-145): > 100 µM (inactive)
GI50 (PC-3): > 100 µM (inactive)
GI50 (Malme-3M): > 100 µM (inactive)
GI50 (UACC-257): > 100 µM (inactive)
GI50 (T47D): > 100 µM (inactive)
GI50 (HCT-116): > 100 µM (inactive)
GI50 (MDA-MB-231): > 100 µM (inactive)
GI50 (EKVX): > 100 µM (inactive)
GI50 (SK-MEL-2): > 100 µM (inactive)
GI50 (A549): > 100 µM (inactive)
GI50 (TK-10): > 100 µM (inactive)
GI50 (M14): > 100 µM (inactive)
GI50 (LOX IMVI): > 100 µM (inactive)
GI50 (HCT-15): > 100 µM
GI50 (CAKI-1): > 100 µM (inactive)
GI50 (OVCAR-3): > 100 µM (inactive)
GI50 (NCI-H23): > 100 µM (inactive)
GI50 (A498): > 100 µM (inactive)
GI50 (SW-620): > 100 µM (inactive)
GI50 (SK-MEL-5): > 100 µM (inactive)
GI50 (ACHN): > 100 µM (inactive)
GI50 (MOLT-4): > 100 µM (inactive)
GI50 (COLO 205): > 100 µM (inactive)
GI50 (SF-268): > 100 µM (inactive)
GI50 (HOP-62): > 100 µM (inactive)

O=C(O)[C@@H]1C2CC([C@@H]1C(=O)O)[C@H](N1C(=O)CCC1=O)[C@@H]2Br (stereo partly specified)
GI50 (K562): > 100 µM (inactive)
GI50 (CCRF-CEM): > 100 µM (inactive)
GI50 (U-251): > 100 µM (inactive)
GI50 (HT-29): > 100 µM (inactive)
GI50 (SN12C): > 100 µM (inactive)
GI50 (786-0): > 100 µM (inactive)
GI50 (SF-295): > 100 µM (inactive)
GI50 (IGROV-1): > 100 µM (inactive)
GI50 (HL-60): > 100 µM (inactive)
GI50 (UO-31): > 100 µM (inactive)
GI50 (OVCAR-8): > 100 µM (inactive)
GI50 (NCI-H226): > 100 µM (inactive)
GI50 (SK-OV-3): > 100 µM (inactive)
GI50 (OVCAR-4): > 100 µM (inactive)
GI50 (SNB-19): > 100 µM (inactive)
GI50 (UACC-62): > 100 µM (inactive)
GI50 (SK-MEL-28): > 100 µM (inactive)
GI50 (BT-549): > 100 µM (inactive)
GI50 (SF-539): > 100 µM (inactive)
GI50 (MDA-MB-435): > 100 µM (inactive)
GI50 (HOP-92): > 100 µM (inactive)
GI50 (MDA-N): > 100 µM (inactive)
GI50 (SR): > 100 µM (inactive)
GI50 (Hs-578T): > 100 µM (inactive)
GI50 (SNB-75): 84.5 µM (inactive)
GI50 (OVCAR-5): > 100 µM (inactive)
GI50 (KM12): > 100 µM (inactive)
GI50 (NCI-H522): > 100 µM (inactive)
GI50 (NCI-H460): > 100 µM (inactive)
GI50 (DU-145): > 100 µM (inactive)
GI50 (PC-3): > 100 µM (inactive)
GI50 (RPMI-8226): > 100 µM (inactive)
GI50 (Malme-3M): > 100 µM (inactive)
GI50 (UACC-257): > 100 µM (inactive)
GI50 (T47D): > 100 µM (inactive)
GI50 (HCT-116): > 100 µM (inactive)
GI50 (MDA-MB-231): > 100 µM (inactive)
GI50 (EKVX): > 100 µM (inactive)
GI50 (SK-MEL-2): > 100 µM (inactive)
GI50 (A549): > 100 µM (inactive)
GI50 (NCI/ADR-RES): > 100 µM (inactive)
GI50 (TK-10): > 100 µM (inactive)
GI50 (M14): > 100 µM (inactive)
GI50 (LOX IMVI): > 100 µM (inactive)
GI50 (HCT-15): > 100 µM
GI50 (OVCAR-3): > 100 µM (inactive)
GI50 (NCI-H23): > 100 µM (inactive)
GI50 (A498): > 100 µM (inactive)
GI50 (SW-620): > 100 µM (inactive)
GI50 (SK-MEL-5): > 100 µM (inactive)
GI50 (ACHN): > 100 µM (inactive)
GI50 (HCC 2998): > 100 µM (inactive)
GI50 (RXF 393): > 100 µM (inactive)
GI50 (MOLT-4): > 100 µM (inactive)
GI50 (COLO 205): > 100 µM (inactive)
GI50 (SF-268): > 100 µM (inactive)
GI50 (HOP-62): > 100 µM (inactive)

COC(=O)C1=COC2OC3C(C(C)O)C(=O)OC34C=CC1C24 (stereo unspecified)
GI50 (K562): 32.2 µM (inactive)
GI50 (CCRF-CEM): 14.9 µM (inactive)
GI50 (U-251): 60 µM (inactive)
GI50 (HT-29): 44 µM (inactive)
GI50 (MCF7): 40.1 µM (inactive)
GI50 (SN12C): 50.1 µM (inactive)
GI50 (786-0): 53.8 µM (inactive)
GI50 (SF-295): 56.6 µM (inactive)
GI50 (IGROV-1): 71.6 µM (inactive)
GI50 (HL-60): 15.5 µM (inactive)
GI50 (UO-31): 74.6 µM (inactive)
GI50 (OVCAR-8): 20.9 µM (inactive)
GI50 (NCI-H226): > 100 µM (inactive)
GI50 (SK-OV-3): 59.7 µM (inactive)
GI50 (OVCAR-4): > 100 µM (inactive)
GI50 (SNB-19): 51.5 µM (inactive)
GI50 (UACC-62): 29.3 µM (inactive)
GI50 (SK-MEL-28): 31 µM (inactive)
GI50 (BT-549): 40.4 µM (inactive)
GI50 (SF-539): 30.1 µM (inactive)
GI50 (MDA-MB-435): 31.6 µM (inactive)
GI50 (HOP-92): 55.7 µM (inactive)
GI50 (MDA-N): 29.6 µM (inactive)
GI50 (Hs-578T): 34 µM (inactive)
GI50 (SNB-75): 35.8 µM (inactive)
GI50 (OVCAR-5): 51.9 µM (inactive)
GI50 (KM12): 37.2 µM (inactive)
GI50 (NCI-H522): 14.8 µM (inactive)
GI50 (NCI-H460): 49.2 µM (inactive)
GI50 (DU-145): 57.1 µM (inactive)
GI50 (PC-3): 85.5 µM (inactive)
GI50 (RPMI-8226): 29.1 µM (inactive)
GI50 (Malme-3M): 36.6 µM (inactive)
GI50 (UACC-257): > 100 µM (inactive)
GI50 (T47D): 39.4 µM (inactive)
GI50 (HCT-116): 47.5 µM (inactive)
GI50 (MDA-MB-231): > 100 µM (inactive)
GI50 (EKVX): 81.7 µM (inactive)
GI50 (SK-MEL-2): 31 µM (inactive)
GI50 (A549): > 100 µM (inactive)
GI50 (NCI/ADR-RES): 25 µM (inactive)
GI50 (TK-10): 61.2 µM (inactive)
GI50 (M14): 55.6 µM (inactive)
GI50 (LOX IMVI): 47.3 µM (inactive)
GI50 (HCT-15): 31.9 µM
GI50 (CAKI-1): 55 µM (inactive)
GI50 (OVCAR-3): 29.5 µM (inactive)
GI50 (NCI-H23): 80.9 µM (inactive)
GI50 (A498): 98.6 µM (inactive)
GI50 (SW-620): 29.4 µM (inactive)
GI50 (SK-MEL-5): 57 µM (inactive)
GI50 (ACHN): 44.7 µM (inactive)
GI50 (HCC 2998): > 100 µM (inactive)
GI50 (MOLT-4): 24.3 µM (inactive)
GI50 (COLO 205): 40.6 µM (inactive)
GI50 (SF-268): 49 µM (inactive)
